# Experimental data: PubChem BioAssay (NCI)
#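 48-hour exposure; five concentrations; linearly interpolated endpoints. Here, GI50 denotes the concentration required for 50% inhibition of growth. At the TGI there is no net growth.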
# Legend:
# Assay in all cases: NCI-60 cell line screen, 48 h
# A498 renal = test system: A498 renal
# HOP-62 NSCLC = test system: HOP-62 NSCLC
# IGROV1 ovarian = test system: IGROV1 ovarian
# K-562 leukemia = test system: K-562 leukemia
# OVCAR-5 ovarian = test system: OVCAR-5 ovarian
# PC-3 prostate = test system: PC-3 prostate
# RXF 393 renal = test system: RXF 393 renal
# SNB-75 CNS = test system: SNB-75 CNS
# SR leukemia = test system: SR leukemia
# BT-549 breast = test system: BT-549 breast
SMILES,GI50 (A498 renal),TGI (A498 renal),GI50 (HOP-62 NSCLC),TGI (HOP-62 NSCLC),GI50 (IGROV1 ovarian),TGI (IGROV1 ovarian),GI50 (K-562 leukemia),TGI (K-562 leukemia),GI50 (OVCAR-5 ovarian),TGI (OVCAR-5 ovarian),GI50 (PC-3 prostate),TGI (PC-3 prostate),GI50 (RXF 393 renal),TGI (RXF 393 renal),GI50 (SNB-75 CNS),TGI (SNB-75 CNS),TGI (SR leukemia),TGI (BT-549 breast),GI50 (BT-549 breast)
C[C@H]1CCC/C=C/[C@@H]2C[C@H](O)C[C@H]2[C@H](O)[C@@H](SC2OC(CO)C(O)C(O)C2O)CC(=O)O1 (stereo partly specified),20.7 µM,63.8 µM,98.9 µM,> 100 µM,> 100 µM,> 100 µM,> 100 µM,> 100 µM,48 µM,> 100 µM,> 100 µM,> 100 µM,20 µM,55.8 µM,53.2 µM,> 100 µM,–,–,–
COC(=O)C12C3C4C1C1C2C3C41C(=O)N(C(C)C)C(C)C (stereo unspecified),–,> 100 µM,–,> 100 µM,–,> 100 µM,–,> 100 µM,–,> 100 µM,–,–,–,–,–,> 100 µM,> 100 µM,–,–
Cc1ccc([N+](=O)[O-])cc1NC(=O)C(=O)C1CCC2=C(Sc3ccccc3N2)C1=O (stereo unspecified),–,–,–,> 100 µM,–,> 100 µM,–,–,–,> 100 µM,–,> 100 µM,–,> 100 µM,–,> 100 µM,–,> 100 µM,–
CC(=O)OCC(OC(C)=O)C(OC(C)=O)C(OC(C)=O)C(=O)CNn1c(-c2ccccc2Cl)nc2ccc(Br)cc2c1=O (stereo unspecified),–,> 100 µM,–,> 100 µM,–,–,–,> 100 µM,–,> 100 µM,–,–,–,> 100 µM,–,> 100 µM,> 100 µM,–,–
c1ccc(-c2[nH]c(-c3ccccc3)c(-c3cnccn3)c2-c2cnccn2)cc1,–,> 100 µM,–,> 100 µM,–,> 100 µM,–,> 100 µM,–,> 100 µM,–,–,–,> 100 µM,–,> 100 µM,> 100 µM,–,–
CCOC(=O)/C(C#N)=C(N)/C(=N\Nc1cccc(C(F)(F)F)c1)C(=O)OCC,–,> 100 µM,–,> 100 µM,–,> 100 µM,–,–,–,> 100 µM,–,–,–,–,–,> 100 µM,> 100 µM,–,–
O=C(Nc1ccccc1C(=O)O)C(=O)C(C(=O)c1ccccc1-c1ccccc1)C1OC(=O)c2ccccc21 (stereo unspecified),–,35.3 µM,–,37.8 µM,–,56.3 µM,–,> 100 µM,–,42.2 µM,–,–,–,27.2 µM,–,53.5 µM,71.1 µM,–,–
COC(=O)c1nn(C(=N)c2ccc(Cl)cc2)c2c1CCCCC2,–,> 100 µM,–,> 100 µM,–,> 100 µM,–,> 100 µM,–,> 100 µM,–,–,–,> 100 µM,–,> 100 µM,> 100 µM,–,–
CC(=O)NS(=O)(=O)c1ccc(-n2nc(-c3ccccc3)cc2C2=CC(=O)C=CC2=O)cc1,–,–,> 100 µM,> 100 µM,> 100 µM,> 100 µM,57 µM,> 100 µM,> 100 µM,> 100 µM,> 100 µM,> 100 µM,> 100 µM,> 100 µM,–,–,–,> 100 µM,48.9 µM
CC(=O)O[C@H]1C(=O)[C@@]2(C)C(C(OC(=O)c3ccccc3)[C@]3(O)CC(OC(=O)C(O)C(NC(=O)c4ccccc4)c4ccc(C)cc4)C(C)=C1C3(C)C)[C@]1(OC(C)=O)CO[C@@H]1C[C@@H]2O (stereo partly specified),–,> 25 µM,–,24.1 µM,–,19 µM,–,> 25 µM,–,0.237 µM,–,–,–,0.13 µM,–,1.31 µM,–,–,–
O=c1cccccc1NCCNc1cccccc1=O,–,–,–,> 100 µM,–,> 100 µM,–,> 100 µM,–,> 100 µM,–,–,–,> 100 µM,–,–,> 100 µM,–,–
N[C@H](C(=O)O)[C@@H](Cl)CC(=O)O,–,> 100 µM,–,> 100 µM,–,> 100 µM,–,> 100 µM,–,> 100 µM,–,–,–,> 100 µM,–,> 100 µM,–,–,–
S=C(Nc1ccccc1)N1CCn2c1nsc2=Nc1ccccc1,77.9 µM,> 100 µM,> 100 µM,> 100 µM,50.2 µM,> 100 µM,31.3 µM,> 100 µM,> 100 µM,> 100 µM,53.3 µM,> 100 µM,> 100 µM,> 100 µM,66.5 µM,> 100 µM,–,> 100 µM,76.7 µM
CNC(C)Cc1ccc(O)cc1 (stereo unspecified),–,> 100 µM,–,> 100 µM,–,> 100 µM,–,> 100 µM,–,> 100 µM,–,–,–,> 100 µM,–,> 100 µM,> 100 µM,–,–
COc1cc2c3c(c1OC)Oc1ccc(cc1)CC1c4c(cc(OC)c(OC)c4Oc4ccc(cc4)CC3N(C)CC2)CCN1C (stereo unspecified),–,34 µM,–,61.4 µM,–,67.8 µM,–,35.5 µM,–,> 100 µM,–,–,–,40.3 µM,–,49.2 µM,7.24 µM,–,–
CC1=NN(C(=O)c2cc(Cl)cc([N+](=O)[O-])c2)C(=O)C1N=Nc1ccccc1C(=O)O (stereo unspecified),–,> 100 µM,–,–,–,> 100 µM,–,> 100 µM,–,> 100 µM,–,–,–,> 100 µM,–,> 100 µM,> 100 µM,–,–
CS(=O)(=O)Nc1cc(-c2ccc3ncnc(Nc4cccc(Cl)c4F)c3c2)cnc1Cl,1.68 µM,4.1 µM,2.48 µM,60.7 µM,1.02 µM,4.34 µM,4.2 µM,> 100 µM,2.17 µM,19.1 µM,2.27 µM,11.6 µM,1.67 µM,4.93 µM,0.463 µM,7.43 µM,–,7.65 µM,1.84 µM
C=C(C)[C@@H]1CC[C@]2(C)[C@H](CC=C3[C@@H]4[C@H](C)[C@@H](C)CC[C@]4(CO)CC[C@]32C)[C@@]1(C)CCCN,3.83 µM,11.2 µM,1.08 µM,2.36 µM,0.885 µM,1.67 µM,1.22 µM,3.63 µM,1.76 µM,6.15 µM,1.65 µM,7.48 µM,0.826 µM,1.59 µM,0.848 µM,3.62 µM,–,9.23 µM,2.56 µM
Cc1ccc(/C=C2\CN(Cc3cn(CCNc4ccnc5cc(Cl)ccc45)nn3)C/C(=C\c3ccc(C)cc3)C2=O)cc1,0.85 µM,2.2 µM,1.96 µM,3.47 µM,1.92 µM,3.73 µM,–,–,1.8 µM,3.54 µM,1.75 µM,3.74 µM,1.67 µM,3.36 µM,1.61 µM,3.53 µM,–,3.35 µM,1.89 µM
COc1cc(C(=O)C/C(CCC(=O)Nc2ccc(Cl)cc2Cl)=N/Nc2nnc(C)n2N)ccc1O,–,> 100 µM,–,> 100 µM,–,> 100 µM,–,–,–,> 100 µM,–,–,–,> 100 µM,–,> 100 µM,> 100 µM,–,–
